*1 amine or outer side, *2 acyl side, *3 side chain or, on linkers, in order; H or OH if unused. Where a SMILES comes first, the peptide text is derived from it. Where no end group is shown, it is not given here. Side-chain parts run from the residue outwards. [ ]: non-standard residue; d: D form. The star is where a group is joined. γGlu = O=C(O)[C@H](CCC(=O)[*:2])N[*:1]; Palmitoyl = CCCCCCCCCCCCCCCC(=O)*; Met(O) = CS(=O)CC[C@H](N)C(=O)O; Dab = NCC[C@H](N)C(=O)O; Nva = CCC[C@H](N)C(=O)O; Aib = CC(C)(N)C(=O)O
Columns and labels:
Format in all cases: cell-based
GLP-1 receptor = molecular target: T1, GLP-1 receptor (Homo sapiens, UniProt P43220); test: cAMP induction, firefly luciferase-based reporter assay in HEK293 cells co-transfected with GLP-1 receptor; conditions: EC50 at GLP-1 Receptor
T1 construct: expressed in transfected cells; host or cells: HEK293
Text: (§1) This example describes an exemplary method of testing the biological activity of the peptides of the present disclosures, which method involves assaying cAMP synthesis.

GIP receptor = molecular target: T2, GIP receptor (Homo sapiens, UniProt P48546); test: cAMP induction, firefly luciferase-based reporter assay in HEK293 cells co-transfected with GIP receptor; conditions: EC50 at GIP Receptor
T2 construct: expressed in transfected cells; host or cells: HEK293
T2 sequence (P48546 22-466): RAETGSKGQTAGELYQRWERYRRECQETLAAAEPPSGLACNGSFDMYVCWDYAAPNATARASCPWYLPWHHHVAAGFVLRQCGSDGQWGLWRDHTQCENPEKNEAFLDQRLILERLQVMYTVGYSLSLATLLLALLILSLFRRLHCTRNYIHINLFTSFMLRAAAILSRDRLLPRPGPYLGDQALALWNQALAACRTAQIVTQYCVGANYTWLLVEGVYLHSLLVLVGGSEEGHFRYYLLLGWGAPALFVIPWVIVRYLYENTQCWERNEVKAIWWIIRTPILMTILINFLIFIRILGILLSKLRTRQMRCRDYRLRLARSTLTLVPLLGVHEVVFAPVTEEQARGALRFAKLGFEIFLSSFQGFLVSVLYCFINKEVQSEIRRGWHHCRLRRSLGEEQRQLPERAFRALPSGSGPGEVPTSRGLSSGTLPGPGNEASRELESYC
Text: as §1

glucagon receptor = molecular target: T3, glucagon receptor (Homo sapiens, UniProt P47871); test: cAMP induction, firefly luciferase-based reporter assay in HEK293 cells co-transfected with glucagon receptor; conditions: EC50 at Glucagon Receptor
T3 construct: expressed in transfected cells; host or cells: HEK293
Text: as §1

[1] = Table 4, analogs of SEQ ID NO: 43 varying at position 3
[2] = Table 3, analogs of SEQ ID NO: 18 varying at position 3

T3 sequence (P47871 26-477): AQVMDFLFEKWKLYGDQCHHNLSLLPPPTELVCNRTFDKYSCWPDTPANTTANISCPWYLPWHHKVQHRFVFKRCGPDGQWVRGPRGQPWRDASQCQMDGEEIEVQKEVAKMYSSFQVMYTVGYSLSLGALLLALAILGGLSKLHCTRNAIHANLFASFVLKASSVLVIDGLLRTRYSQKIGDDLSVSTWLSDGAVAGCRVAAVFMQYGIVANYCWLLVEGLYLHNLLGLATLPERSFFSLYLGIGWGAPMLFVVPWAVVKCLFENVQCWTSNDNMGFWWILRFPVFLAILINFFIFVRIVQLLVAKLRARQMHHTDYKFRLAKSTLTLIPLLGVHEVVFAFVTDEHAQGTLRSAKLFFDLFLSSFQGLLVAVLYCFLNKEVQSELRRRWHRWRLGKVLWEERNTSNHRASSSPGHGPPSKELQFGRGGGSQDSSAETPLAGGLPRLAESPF
T1 sequence (P43220 24-463): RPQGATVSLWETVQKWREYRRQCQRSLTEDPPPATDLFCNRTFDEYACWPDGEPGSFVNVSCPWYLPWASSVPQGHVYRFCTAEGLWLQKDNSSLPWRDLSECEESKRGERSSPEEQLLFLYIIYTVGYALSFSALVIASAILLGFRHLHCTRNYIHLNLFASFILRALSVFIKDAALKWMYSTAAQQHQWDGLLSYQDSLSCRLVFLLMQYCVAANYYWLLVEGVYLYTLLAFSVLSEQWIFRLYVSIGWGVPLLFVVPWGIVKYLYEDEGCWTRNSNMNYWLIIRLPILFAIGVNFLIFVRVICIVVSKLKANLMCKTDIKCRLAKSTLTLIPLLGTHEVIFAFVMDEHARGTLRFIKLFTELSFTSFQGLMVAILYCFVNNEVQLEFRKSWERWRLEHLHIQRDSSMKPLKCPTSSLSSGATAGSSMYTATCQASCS

Compound	EC50 (GLP-1 receptor; [2])	EC50 (GIP receptor; [2])	EC50 (glucagon receptor; [2])	EC50 (GLP-1 receptor; Table 1)	further results
CCCCCCCCCCCCCCCC(=O)N[C@@H](CCC(=O)NCCCC[C@H](NC(=O)[C@H](CC(=O)O)NC(=O)[C@H](CO)NC(=O)[C@@H](NC(=O)[C@H](Cc1ccccc1)NC(=O)[C@@H](NC(=O)CNC(=O)[C@H](CCC)NC(=O)C(C)(C)NC(=O)[C@@H](N)Cc1c[nH]cn1)[C@@H](C)O)[C@@H](C)O)C(=O)N[C@@H](CO)C(=O)N[C@@H](CCCCN)C(=O)N[C@@H](Cc1ccc(O)cc1)C(=O)N[C@@H](CC(C)C)C(=O)N[C@@H](CC(=O)O)C(=O)N[C@@H](CCC(=O)O)C(=O)N[C@@H](CCCNC(=N)N)C(=O)N[C@@H](C)C(=O)N[C@@H](C)C(=O)N[C@@H](CCC(N)=O)C(=O)N[C@@H](CC(=O)O)C(=O)N[C@@H](Cc1ccccc1)C(=O)N[C@H](C(=O)N[C@@H](CCC(N)=O)C(=O)N[C@@H](Cc1c[nH]c2ccccc12)C(=O)N[C@@H](CC(C)C)C(=O)N[C@@H](CC(C)C)C(=O)N[C@@H](CCC(=O)O)C(=O)NCC(=O)NCC(=O)N1CCC[C@H]1C(=O)N[C@@H](CO)C(=O)N[C@@H](CO)C(=O)NCC(=O)N[C@@H](C)C(=O)N1CCC[C@H]1C(=O)N1CCC[C@H]1C(=O)N1CCC[C@H]1C(=O)N[C@@H](CO)C(N)=O)C(C)C)C(=O)O [compound 47] (H-H[Aib][Nva]GTFTSDK([γGlu-Palmitoyl])SKYLDERAAQDFVQWLLEGGPSSGAPPPS-NH2)					EC50 (GLP-1 receptor; [1]): 3 pM; EC50 (GIP receptor; [1]): 2 pM; EC50 (glucagon receptor; [1]): 25 pM
CCCCCCCCCCCCCCCC(=O)N[C@@H](CCC(=O)NCCCC[C@H](NC(=O)[C@H](CC(=O)O)NC(=O)[C@H](CO)NC(=O)[C@@H](NC(=O)[C@H](Cc1ccccc1)NC(=O)[C@@H](NC(=O)CNC(=O)[C@H](CCNC(C)=O)NC(=O)C(C)(C)NC(=O)[C@@H](N)Cc1c[nH]cn1)[C@@H](C)O)[C@@H](C)O)C(=O)N[C@@H](CO)C(=O)N[C@@H](CCCCN)C(=O)N[C@@H](Cc1ccc(O)cc1)C(=O)N[C@@H](CC(C)C)C(=O)N[C@@H](CCC(=O)O)C(=O)N[C@@H](CCC(=O)O)C(=O)N[C@@H](CCCNC(=N)N)C(=O)N[C@@H](C)C(=O)N[C@@H](C)C(=O)N[C@@H](CCC(N)=O)C(=O)N[C@@H](CCC(=O)O)C(=O)N[C@@H](Cc1ccccc1)C(=O)N[C@H](C(=O)N[C@@H](CCC(N)=O)C(=O)N[C@@H](Cc1c[nH]c2ccccc12)C(=O)N[C@@H](CC(C)C)C(=O)N[C@@H](CC(C)C)C(=O)N[C@@H](CCC(=O)O)C(=O)NCC(=O)NCC(=O)N1CCC[C@H]1C(=O)N[C@@H](CO)C(=O)N[C@@H](CO)C(=O)NCC(=O)N[C@@H](C)C(=O)N1CCC[C@H]1C(=O)N1CCC[C@H]1C(=O)N1CCC[C@H]1C(=O)N[C@@H](CO)C(N)=O)C(C)C)C(=O)O [compound 36] (H-H[Aib][Dab](Ac)GTFTSDK([γGlu-Palmitoyl])SKYLEERAAQEFVQWLLEGGPSSGAPPPS-NH2; N-terminus assumed)	3 pM	14 pM	9 pM		
CCCCCCCCCCCCCCCC(=O)N[C@@H](CCC(=O)NCCCC[C@H](NC(=O)[C@H](CC(=O)O)NC(=O)[C@H](CO)NC(=O)[C@@H](NC(=O)[C@H](Cc1ccccc1)NC(=O)[C@@H](NC(=O)CNC(=O)[C@H](CC[S+](C)[O-])NC(=O)C(C)(C)NC(=O)[C@@H](N)Cc1c[nH]cn1)[C@@H](C)O)[C@@H](C)O)C(=O)N[C@@H](CO)C(=O)N[C@@H](CCCCN)C(=O)N[C@@H](Cc1ccc(O)cc1)C(=O)N[C@@H](CC(C)C)C(=O)N[C@@H](CCC(=O)O)C(=O)N[C@@H](CCC(=O)O)C(=O)N[C@@H](CCCNC(=N)N)C(=O)N[C@@H](C)C(=O)N[C@@H](C)C(=O)N[C@@H](CCC(N)=O)C(=O)N[C@@H](CCC(=O)O)C(=O)N[C@@H](Cc1ccccc1)C(=O)N[C@H](C(=O)N[C@@H](CCC(N)=O)C(=O)N[C@@H](Cc1c[nH]c2ccccc12)C(=O)N[C@@H](CC(C)C)C(=O)N[C@@H](CC(C)C)C(=O)N[C@@H](CCC(=O)O)C(=O)NCC(=O)NCC(=O)N1CCC[C@H]1C(=O)N[C@@H](CO)C(=O)N[C@@H](CO)C(=O)NCC(=O)N[C@@H](C)C(=O)N1CCC[C@H]1C(=O)N1CCC[C@H]1C(=O)N1CCC[C@H]1C(=O)N[C@@H](CO)C(N)=O)C(C)C)C(=O)O (stereo partly drawn) [compound 42] (H-H[Aib][Met(O)]GTFTSDK([γGlu-Palmitoyl])SKYLEERAAQEFVQWLLEGGPSSGAPPPS-NH2)	1 pM	6 pM	42 pM		
CCCCCCCCCCCCCCCC(=O)N[C@@H](CCC(=O)NCCCC[C@H](NC(=O)[C@H](CC(=O)O)NC(=O)[C@H](CO)NC(=O)[C@@H](NC(=O)[C@H](Cc1ccccc1)NC(=O)[C@@H](NC(=O)CNC(=O)[C@H](CCC(=O)O)NC(=O)C(C)(C)NC(=O)[C@@H](N)Cc1c[nH]cn1)[C@@H](C)O)[C@@H](C)O)C(=O)N[C@@H](CO)C(=O)N[C@@H](CCCCN)C(=O)N[C@@H](Cc1ccc(O)cc1)C(=O)N[C@@H](CC(C)C)C(=O)N[C@@H](CC(=O)O)C(=O)N[C@@H](CCC(=O)O)C(=O)N[C@@H](CCCNC(=N)N)C(=O)N[C@@H](C)C(=O)N[C@@H](C)C(=O)N[C@@H](CCC(N)=O)C(=O)N[C@@H](CC(=O)O)C(=O)N[C@@H](Cc1ccccc1)C(=O)N[C@H](C(=O)N[C@@H](CCC(N)=O)C(=O)N[C@@H](Cc1c[nH]c2ccccc12)C(=O)N[C@@H](CC(C)C)C(=O)N[C@@H](CC(C)C)C(=O)N[C@@H](CCC(=O)O)C(=O)NCC(=O)NCC(=O)N1CCC[C@H]1C(=O)N[C@@H](CO)C(=O)N[C@@H](CO)C(=O)NCC(=O)N[C@@H](C)C(=O)N1CCC[C@H]1C(=O)N1CCC[C@H]1C(=O)N1CCC[C@H]1C(=O)N[C@@H](CO)C(N)=O)C(C)C)C(=O)O [compound 44] (H-H[Aib]EGTFTSDK([γGlu-Palmitoyl])SKYLDERAAQDFVQWLLEGGPSSGAPPPS-NH2)				7 pM	
H-H[Aib]QGTFTSEYSKYLDERAAQDFVQWLLDGGPSSGAPPPSK([γGlu-γGlu-Palmitoyl])G-NH2 [compound 16]				2 pM	
CCCCCCCCCCCCCCCC(=O)N[C@@H](CCC(=O)NCCCC[C@H](NC(=O)[C@H](CC(=O)O)NC(=O)[C@H](CO)NC(=O)[C@@H](NC(=O)[C@H](Cc1ccccc1)NC(=O)[C@@H](NC(=O)CNC(=O)[C@@H](NC(=O)C(C)(C)NC(=O)[C@@H](N)Cc1c[nH]cn1)C(C)C)[C@@H](C)O)[C@@H](C)O)C(=O)N[C@@H](CO)C(=O)N[C@@H](CCCCN)C(=O)N[C@@H](Cc1ccc(O)cc1)C(=O)N[C@@H](CC(C)C)C(=O)N[C@@H](CCC(=O)O)C(=O)N[C@@H](CCC(=O)O)C(=O)N[C@@H](CCCNC(=N)N)C(=O)N[C@@H](C)C(=O)N[C@@H](C)C(=O)N[C@@H](CCC(N)=O)C(=O)N[C@@H](CCC(=O)O)C(=O)N[C@@H](Cc1ccccc1)C(=O)N[C@H](C(=O)N[C@@H](CCC(N)=O)C(=O)N[C@@H](Cc1c[nH]c2ccccc12)C(=O)N[C@@H](CC(C)C)C(=O)N[C@@H](CC(C)C)C(=O)N[C@@H](CCC(=O)O)C(=O)NCC(=O)NCC(=O)N1CCC[C@H]1C(=O)N[C@@H](CO)C(=O)N[C@@H](CO)C(=O)NCC(=O)N[C@@H](C)C(=O)N1CCC[C@H]1C(=O)N1CCC[C@H]1C(=O)N1CCC[C@H]1C(=O)N[C@@H](CO)C(N)=O)C(C)C)C(=O)O [compound 37] (H-H[Aib]VGTFTSDK([γGlu-Palmitoyl])SKYLEERAAQEFVQWLLEGGPSSGAPPPS-NH2; N-terminus assumed)	2 pM	2 pM	29 pM		
H-H[Aib]QGTFTSDYSKYLEERAAQDFVQWLLDGGPSSGAPPPSK([γGlu-γGlu-Palmitoyl])G-NH2 [compound 15]				3 pM	EC50 (glucagon receptor; Table 1): 5 pM
H[Aib]QGTFTSDYAKYLDERAAQDFVQWLLDGGPSSGAPPPSK([γGlu-γGlu-Palmitoyl])G-NH2 [compound 17]				8 pM	EC50 (GIP receptor; Table 1): 20 pM

Source: US9340600B2 (Indiana University Research and Technology Corporation, priority 2012, dated 2016)
